What was measured:
Type in all cases: biochemical
Cathepsin S = Cathepsin S (Homo sapiens, UniProt P25774); assay: Cathepsin S Assay
Procedure: (§1) Kinetic measurements are performed in a total reaction volume of 30 μl in 384-well microtiter plates. […] Control reactions in the absence of inhibitor are performed in replicates of 24. The reactions are initiated by adding the substrate, acetyl-histidine-proline-valine-lysine-amino carbamoyl coumarin, to a final concentration of 50 μM. The rate of substrate hydrolysis is measured by monitoring the increase in fluorescence at an excitation wavelength of 380 nm and an emission wavelength of 450 nm that results from cleavage of the aniline bond in the substrate by the enzyme. The apparent inhibition constants for the compounds are determined from the enzyme progress curves and are then used to calculate the inhibition constants for competitive inhibitors.

Cathepsin L = Cathepsin L (Homo sapiens, UniProt P07711); assay: Cathepsin L Assay; conditions: for Ki: pH5.5, 20 minutes incubation at room temperature, substrate 20 μM, fluorescence
Procedure: as §1, with “substrate, acetyl-histidine-lysine-phenylalanine-lysine-amino” for “substrate, acetyl-histidine-proline-valine-lysine-amino”, “of 20” for “of 50”

Cathepsin K = molecular target: T1, Cathepsin K (Homo sapiens, UniProt P43235); assay: Cathepsin K Assay; conditions: for Ki: pH5.5, 20 minutes incubation at room temperature, substrate 40 μM, fluorescence
T1 sequence (P43235 115-329): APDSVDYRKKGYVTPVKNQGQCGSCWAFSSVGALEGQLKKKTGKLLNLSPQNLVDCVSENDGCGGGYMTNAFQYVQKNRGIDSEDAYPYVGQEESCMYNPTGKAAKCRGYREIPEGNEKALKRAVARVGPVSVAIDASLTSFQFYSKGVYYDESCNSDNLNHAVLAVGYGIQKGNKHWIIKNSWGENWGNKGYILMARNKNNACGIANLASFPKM
Procedure: as §1, with “substrate, acetyl-lysine-histidine-proline-lysine-amino” for “substrate, acetyl-histidine-proline-valine-lysine-amino”, “of 40” for “of 50”

Cathepsin B = Cathepsin B (Homo sapiens, UniProt P07858); assay: Cathepsin B Assay; conditions: for Ki: pH5.5, 20 minutes incubation at room temperature, substrate 10 μM, fluorescence
Procedure: as §1, with “of 10” for “of 50”

[1] = ratio of isozyme inhibition constant to cathepsin S inhibition constant

Cathepsin L, sequence (P07711 114-333, species assumed): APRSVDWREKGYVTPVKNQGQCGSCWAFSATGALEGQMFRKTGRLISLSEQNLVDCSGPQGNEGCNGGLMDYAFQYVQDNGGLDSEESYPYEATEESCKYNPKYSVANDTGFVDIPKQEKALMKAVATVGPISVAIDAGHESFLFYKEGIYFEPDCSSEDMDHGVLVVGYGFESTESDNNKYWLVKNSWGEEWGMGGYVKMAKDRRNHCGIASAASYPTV
Cathepsin S, sequence (P25774 115-331): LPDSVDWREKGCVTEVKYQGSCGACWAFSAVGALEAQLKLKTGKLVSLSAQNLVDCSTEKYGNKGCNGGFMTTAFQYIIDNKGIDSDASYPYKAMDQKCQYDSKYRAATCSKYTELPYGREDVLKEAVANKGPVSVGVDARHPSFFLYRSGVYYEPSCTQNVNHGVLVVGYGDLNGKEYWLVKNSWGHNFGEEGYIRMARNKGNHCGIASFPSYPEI

Compound	Ki (Cathepsin S) [nM]	Ki (Cathepsin L) [nM]	Ki (Cathepsin K) [nM]	Ki (Cathepsin B) [nM]	IC50 (Cathepsin S) [nM]	selectivity for cathepsin S over cathepsin L (Cathepsin L; [1])	selectivity for cathepsin S over cathepsin K (Cathepsin K; [1])	selectivity for cathepsin S over cathepsin B (Cathepsin B; [1])
C[C@H](NC(=O)O[C@@H](CS(=O)(=O)Cc1ccccc1)C(=O)N1CCOCC1)C(=O)c1nc2ccccc2o1 [Example 2, 2-phenylmethanesulfonyl-(1R)-(morpholine-4-carbonyl)ethyl 2-(benzoxazol-2-yl)-(1S)-methyl-2-oxo-ethyl carbamate]	488	> 100000	> 100000	> 100000				
O=C(N[C@H](C(=O)c1nc2ccc(F)cc2o1)C1CC1)O[C@@H](CC1CCCCC1)C(=O)N1CCOCC1 [Example 40, 2-cyclohexyl-(1S)-(morpholine-4-carbonyl)ethyl(1S)-cyclopropyl-2-(6-fluoro-benzoxazol-2-yl)-2-oxo-ethyl carbamate]	2.1	15300	2130	> 30000				
CCC[C@H](NC(=O)O[C@@H](CC1CCCCC1)C(=O)N1CCOCC1)C(=O)c1nc2ccc(F)cc2o1 [Example 44, 2-cyclohexyl-(1S)-(morpholine-4-carbonyl)ethyl(1S)-(6-fluoro-benzoxazole-2-carbonyl)-butyl carbamate]	0.5	3610	483	9700				
CCC[C@H](NC(=O)O[C@H](C(=O)N1CCOCC1)C1CCCCC1)C(=O)c1nc2ccccc2o1 [Example 46, (1S)-cyclohexyl-1-(morpholine-4-carbonyl)methyl(1S)-(benzoxazole-2-carbonyl)-butyl carbamate]	1.6	2210	113	4040				
CC[C@H](NC(=O)O[C@@H](CC1CCCCC1)C(=O)N1CCCC1)C(=O)c1nc2ccc(F)cc2o1 [Example 55, (1S)-cyclohexylmethyl-2-oxo-2-(pyrrolidin-1-yl)-ethyl(1S)-(6-fluoro-benzoxazole-2-carbonyl)-propyl carbamate]	0.9	3970	188	9090				
CC[C@H](NC(=O)O[C@@H](CC1CCCCC1)C(=O)N1CCOCC1)C(=O)c1nc2ccc(C)cc2o1 [Example 47, 2-cyclohexyl-(1S)-(morpholine-4-carbonyl)ethyl(1S)-(6-methyl-benzoxazole-2-carbonyl)-propyl carbamate]	1.1	2170	205	> 30000				
O=C(N[C@H](C(=O)c1nc2ccccc2o1)C1CC1)O[C@@H](CC1CCCCC1)C(=O)N1CCOCC1 [Example 1, 2-cyclohexyl-(1S)-(morpholine-4-carbonyl)ethyl 2-(benzooxazol-2-yl)-(1S)-cyclopropyl-2-oxo-ethyl carbamate]	6.6	> 23300	5160	> 47500	6.6	at least 100 fold	at least 100 fold	at least 100 fold
CC[C@H](NC(=O)O[C@@H](CC1CCCCC1)C(=O)N1CCOCC1)C(=O)c1nc2cccnc2o1 [Example 39, 2-cyclohexyl-(1S)-(morpholine-4-carbonyl)ethyl(1S)-(oxazolo[5,4-b]pyridine-2-carbonyl)-propyl carbamate]	0.4	1310	260	5220				
CC[C@H](NC(=O)O[C@@H](CC1CCCCC1)C(=O)N(C)C)C(=O)c1nc2ccccc2o1 [Example 43, 2-cyclohexyl-(1S)-dimethylcarbamoyl-ethyl(1S)-(benzoxazole-2-carbonyl)-propyl carbamate]	3.6	4650	250	16000				
CCC[C@H](NC(=O)O[C@@H](CC1CCCCC1)C(=O)N1CCCC1)C(=O)c1nc2ccccc2o1 [Example 27, (1S)-cyclohexylmethyl-2-oxo-2-(pyrrolidin-1-yl)-ethyl(1S)-(benzoxazole-2-carbonyl)-butyl carbamate]	0.8	2030	211	5700				
CCC[C@H](NC(=O)O[C@@H](CC1CCCCC1)C(=O)N1CCOCC1)C(=O)c1nc2cc(F)ccc2o1 [Example 54, 2-cyclohexyl-(1S)-(morpholine-4-carbonyl)ethyl(1S)-(5-fluoro-benzoxazole-2-carbonyl)-butyl carbamate]	1.8	2310	482	4360				
CC[C@H](NC(=O)O[C@@H](CC1CCCCC1)C(=O)N1CCOCC1)C(=O)c1nc2cc(Cl)ccc2o1 [Example 48, 2-cyclohexyl-(1S)-(morpholine-4-carbonyl)ethyl(1S)-(5-chloro-benzoxazole-2-carbonyl)-propyl carbamate]	2.8	2750	481	1880				
O=C(N[C@H]1COCC1=O)O[C@@H](CC1CCCCC1)C(=O)N1CCOCC1 [Example 5, 2-cyclohexyl-(1S)-(morpholine-4-carbonyl)ethyl 4-oxo-tetrahydro-furan-(3S)-yl carbamate]	892	> 100000	> 30000	> 100000				
CC[C@H](NC(=O)O[C@H](C(=O)N1CCOCC1)C1CCCCC1)C(=O)c1nc2ccc(F)cc2o1 [Example 42, (1S)-cyclohexyl-1-(morpholine-4-carbonyl)methyl(1S)-(6-fluoro-benzoxazole-2-carbonyl)-propyl carbamate]	4.6	9500	278	16700				
N#C[C@H](COCc1ccccc1Cl)NC(=O)O[C@@H](CC1CCCCC1)C(=O)N1CCOCC1 [Example 8, (1S)-cyclohexylmethyl-2-morpholin-4-yl-2-oxo-ethyl 2-(2-chloro-benzyloxy)-(1R)-cyano-ethyl carbamate]	31.4	> 22600	13800	> 30000				

Source: patent publication US8268996B2, “Compounds and compositions as cathepsin S inhibitors” (IRM LLC, priority 2004, dated 2012)
